Data: patent US11597962B2, “Rapid selective detection of bacteria” (priority 2017, dated 2023)
Positions of bridges follow the written chain, without caps; N, C: chain ends. No end group written: not given here.

Columns and labels:
L. monocytogenes Type I = assay: Bioactivity agar plate assay (zone of inhibition); format: cell-based, Listeria monocytogenes; details: peptide 2.3, 0.23, 0.023 mM, 10 μL spots; 37° C., 24 hours
Procedure: Bioactivity. LeuA and negative peptide were checked for activity using agar plate inoculated with L. monocytogenes Type I. Briefly, a TSB agar plate was spotted with different concentrations of peptide (2.3, 0.23, and 0.023 mM, dissolved in water) with a spot volume of 10 μL. Then the 6 mL soft agar inoculated with 60 μL L. monocytogenes (overnight culture, undiluted) was plated over the TSB agar. The plate was incubated at 37° C. and zone of inhibition was checked after 24 hours.

[1] = test system: L. monocytogenes ATCC 43256; assay: Detecting L. monocytogenes using AuNC on LeuA-spotted glass surface; format: binding, Listeria monocytogenes; details: Leu A 10 μL 0.13 mM, 10^4 cells, AuNC 12 μL; AuNC alone 31860±11608, peptide + AuNC without bacteria 34352±1812
Procedure: Detecting L. monocytogenes using AuNC on glass surface. An aqueous solution of Leu A (10 μL, 0.13 mM) was spotted on a glass slide (˜4 mm diameter) in triplicate. The peptide spots were allowed to air dry (˜20 min). This was followed by spotting bacteria L. monocytogenes ATCC 43256 (10 μL, 10^4 cells) or no bacteria (10 μL water) on top of the peptide spot. The glass slide was then dipped in MilIQ water for 10 seconds to remove all non-bound bacteria. The slide was allowed to air dry and finally AuNC (12 μL) was deposited on each spot. AuNC (12 μL) alone was also spotted as a control. The mean fluorescence intensity was recorded using Chemidoc imager. The experiment was repeated three times.

[2] = test system: L. monocytogenes ATCC 19116; assay: Glass biosensor assay: peptide concentration optimization and limit of detection; format: binding, Listeria monocytogenes
Procedure: Optimization of peptide concentration. The bio-sensor was optimized by testing different LeuA concentrations. The slide was spotted with 10 μL of varying peptide concentrations (0, 0.013, 0.025, 0.064, or 0.13 mM). The peptide spot was allowed to air dry for 20 min. Next, bacteria (L. monocytogenes ATCC 19116) was spotted at a constant concentration (10 μL, 10^4 cfu). After drying, the slides were dipped in MilIQ water for 10 seconds. Lastly AuNC (12 μl) was spotted to quantify the fluorescence intensity of the spots.
Sensitivity and selectivity of the biosensor. To obtain the limit of detection (LOD), the biosensor assay was performed with varying number of bacteria in 10 μL sample. An overnight culture of L. monocytogenes ATCC 19116 was diluted to obtain samples with 0, 200, 1000, 2000, and 10000 cfu/10 μL. A glass slide was prepared with peptide spots (Leu A, 0.13 mM, 10 μL) as descried above and bacteria (10 μL) were spotted on the peptide spot followed by AuNC labeling and fluorescence recording using Chemidoc imager.

[3] = test system: L. monocytogenes strains (ATCC 43256, ATCC 19116, and Pat Type 1); assay: Selectivity of the biosensor assay, Listeria strains; format: binding, Listeria monocytogenes; details: 10^4 cells/10 μL; control sample (water) 12000±2000
Procedure: (§1) The selectivity of the biosensor assay was tested with three L. monocytogenes strains (ATCC 43256, ATCC 19116, and Pat Type 1), B. cereus ATCC 14579, S. aureus ATCC 29213, S. enterica, and E. coli DHα. Water (no bacteria) was used as a control. Another control used was with a negative peptide (24-mer) spot, and L. monocytogenes 19116 was used. The biosensor assay was performed as described above.

E. coli DHα = assay: Selectivity of the biosensor assay, E. coli; format: binding, Escherichia coli; details: 10^4 cells/10 μL; one value for both Gram-negative bacteria; control 12000±2000
Procedure: as §1

[4] = test system: S. enterica Serovar Enteritidis; assay: Selectivity of the biosensor assay, S. enterica; format: binding, Salmonella enterica; details: 10^4 cells/10 μL; one value for both Gram-negative bacteria; control 12000±2000
Procedure: as §1

B. cereus ATCC 14579 = assay: Selectivity of the biosensor assay, B. cereus; format: binding, Bacillus cereus; details: 10^4 cells/10 μL; control 12000±2000
Procedure: as §1

S. aureus ATCC 29213 = assay: Selectivity of the biosensor assay, S. aureus; format: binding, Staphylococcus aureus; details: 10^4 cells/10 μL; control 12000±2000
Procedure: as §1

L. monocytogenes 19116 = assay: Detection of Listeria monocytogenes in spiked milk sample (glass biosensor); format: binding; details: whole milk (3.5% fat) diluted with water, 10^3 cells/μL
Procedure: Detection of Listeria monocytogenes in spiked milk sample. A spiked milk sample was prepared using milk (3.5% fat, 1 mL) diluted with water (9 mL). L. monocytogenes 19116 was added to the diluted milk to obtain a bacterial concentration of 10^4 cfu/10 μL. Water was used as a control. The biosensor assay was performed on the spiked milk sample as described above.

[5] = test system: Listeria innocua ATCC 33091; assay: Detection of bacteria using AuNC on LeuA-conjugated PVDF membrane; format: binding; details: 5000 cfu in 500 μL water; baseline without bacteria 3880
Description: Detection of bacteria using AuNC on membrane. A low-fluorescence polyvinylidene difluoride (PVDF) membrane (Thermo Scientific) was cut into 3 small circular pieces (˜0.75 cm radius). The circular membrane was placed on a membrane holder which was connected to a side arm Erlenmeyer flask with vacuum. Each membrane was first washed with copious amount of water by allowing water to filter through the membrane using a gentle vacuum. Membranes 1 and 2 were then conjugated with peptide LeuA by delivering 100 μL peptide solution (0.012 mM). The peptide was allowed to bind the membrane for ˜20 minutes and then excess, unbound peptide was removed by vacuum. Next, the peptide-conjugated membranes were exposed to samples with bacteria (5000 cfu Listeria innocua ATCC 33091 in 500 μL water; membrane 1) or without bacteria (500 μL water; membrane 2). […] Excess AuNC was removed by vacuum and the membrane was allowed to dry for ˜15-20 mins before fluorescence imaging. The fluorescence of each membrane was read using BioRad Imager (FIG. 12). […] The fluorescence for the peptide-conjugated membrane alone (no bacteria; membrane 2) could be due to the binding of AuNC to the peptide. This represents baseline fluorescence (3880) and any increase in fluorescence from baseline represents the presence of bacteria as shown in FIG. 12. […]

[6] = test system: L. monocytogenes ATCC 19116; assay: LeuA-conjugated PVDF membrane assay: sample volumes and limit of detection; format: binding, Listeria monocytogenes
Procedure: Detection of L. monocytogenes from different sample volumes. Six circular membranes conjugated with peptide LeuA were prepared as described above. Peptide-conjugated membranes were exposed to three samples of different volumes (500 μL, 1 mL, and 5 mL) each containing same number of L. monocytogenes ATCC 19116 (2000 cfu). Membranes were also exposed to samples (water) with no bacteria (500 μL, 1 mL, and 5 mL) to serve as controls. After passing the samples through the membranes, all membranes were reacted with AuNC (500 μL, 100 μL stock diluted to 500 μL with water) to label the bound bacteria. Excess AuNC from each membrane was removed by vacuum and the membrane was allowed to dry for ˜15-20 mins before fluorescence imaging. The fluorescence of each membrane was read using a BioRad Imager. […] The increase in fluorescence was calculated using the following equation. [formula] Estimation of the limit of detection for L. monocytogenes. Four circular membranes conjugated with peptide LeuA were prepared as described above. The membranes were exposed to samples (500 μL) containing different numbers of L. monocytogenes ATCC 19116 (0, 200, 2000, or 20000 CFU). The rest of the assay was performed as described above.

L. monocytogenes species = details: against L. monocytogenes species; cited from earlier work
S. aureus ATCC 13565 = details: observed previously; cited from earlier work

Row | Substance | activity in bioactivity plate assay (zone of inhibition) (L. monocytogenes Type I) | MFI of AuNC-labeled bacteria bound to peptide [1] | fluorescence of bound bacteria ([2]; 2000 cfu bacteria per spot) | fluorescence of bound bacteria ([2]; 10000 cfu bacteria per spot) | fluorescence of bound bacteria (highest) ([2]; peptide concentration 0.13 mM, 10 μL, bacteria 10^4 cfu/10 μL) | fluorescence of AuNC-labeled bound bacteria [3] | fluorescence of AuNC-labeled bound bacteria (E. coli DHα) | fluorescence of AuNC-labeled bound bacteria [4] | fluorescence of AuNC-labeled bound bacteria (B. cereus ATCC 14579) | fluorescence of AuNC-labeled bound bacteria (S. aureus ATCC 29213) | fluorescence of spiked milk sample compared to the milk alone (L. monocytogenes 19116) | fluorescence of membrane [5] | percent increase in fluorescence ([6]; 200 cfu in 500 μL) | percent increase in fluorescence ([6]; 2000 cfu in 500 μL) | percent (%) increase in fluorescence ([6]; 2000 cfu in 500 μL, 1 mL and 5 mL) | percent increase in fluorescence ([6]; 20000 cfu in 500 μL) | minimum inhibitory concentration (MIC) (L. monocytogenes species) | binding of bacteria to peptide (S. aureus ATCC 13565)
1 | Leucocin A (KYYGNGVHCTKSGCSVNWGEAFSAGVHRLANGGNGFW-OH; disulfide 9-14 (inferred)) [LeuA] | active | 62390±5975 | 31473±2932 | 30842±4696 | 21275±2177 | 28000-33000 | 12000±800 | 12000±800 | 13000±1600 | 18000±2100 | significantly higher fluorescence | 7776 | 11.7% | 15.9% | 15-20% | 26.1% | low nanomolar range | Low binding
2 | negative control (20-mer) peptide: short sequence (20-mer; SEQ ID NO:2) derived from LeuA known not to bind L. monocytogenes (NGVHATKSGASVNWGEAFSA; Control Leucocin A fragment) [reference compound] | inactive | – | – | – | – | 12164±2937 | – | – | – | – | – | – | – | – | – | – | – | –
